# Test results from US12383629B2, “DNA-affibody-drug nanoparticles for inhibiting the metastasis of cancer cells overexpressing HER2” (Arizona Board of Regents on behalf of Arizona State …, priority 2019, dated 2025).
# System: HER2 receptor
# Assay: Western blot assay for HER2 targeting
# Type: cell-based
# Settings: BT474, 1 h; 1 μM DOX, 0.02 μM III, 1 μM Herceptin
# Procedure: Western Blot Analysis—BT474 cells (50,000 cells/mL) were seeded in a 6-well cell culture plate and incubated in 1 mL of Gibco® RPMI 1640 medium supplemented with 10% fetal bovine serum (FBS) and 1% antibiotic-antimycotic mix antibiotic supplement at 37° C. for 24 h in a 5% CO2 atmosphere. […] The cells were washed with 1 mL 1×PBS buffer, and treated with 150 μL Cellstripper® non-enzymatic cell dissociation solution. After centrifugation at 500×g for 3 min, the cell pellets were washed with 150 μL 1×PBS buffer and treated with 60 μL, of 1×RIPA lysis buffer containing protease and phosphatase inhibitor cocktail (Sigma-Aldrich). After three cycle of freeze, thaw and sonication following by centrifugation at 15,000×g for 2 min at 4° C., the clear supernatant was collected.
# Total protein concentration was measured using a BCA kit (Thermo Fisher Scientific). NuPAGE LDS Sample Buffer (4×) and NuPAGE Reducing Agent (10×) was added to the lysate which was denatured at 70° C. for 5 min. Equal amounts of lysates (25 μg) were loaded on a 4%-12% SDS-polyacrylamide Bis-Tris gels (Invitrogen) according to the manufacturer's recommendations and then proteins were transferred to nitrocellulose membranes. […]
smiles,measurement,value
"COc1cccc2c1C(=O)c1c(O)c3c(c(O)c1C2=O)C[C@@](O)(C(=O)CO)C[C@@H]3O[C@H]1C[C@H](N)[C@H](O)[C@H](C)O1 [DOX, doxorubicin]",level of phosphorylated HER2 (Y1221/1222),did not change
